Common to all, as to assay: DiscoverX KinomeScreen kinase selectivity competition binding assay
The target of experiment [1] is T1, panel of ninety-seven kinases (Homo sapiens, UniProt O75116).
T1 construct: purchased DiscoverX; host or cells: T7 phage in E. coli (BL21-derived) for most kinases; HEK-293 for the rest
As to conditions: ROCK2; read-out: % Ctrl @ 3 μM. As to the method: (§1) Atropisomer A-2 has been tested for off-target activity against a panel of ninety-seven kinases distributed across the kinome at a concentration of 3 μM using the DiscoverX KinomeScreen assay. The DiscoverX KinomeScreen assay is a site-directed competition binding assay which measures the binding affinity of a compound to a kinase, by use of a solid supported control compound which can bind or capture the kinases in solution. In the absence of a kinase-inhibitor test compound, all of the kinase will bind to the solid support. If a kinase-inhibitor test compound is added to the assay mix, the amount of kinase binding to the solid support will be reduced, the extent of reduction being dependent on the potency of the test compound as a kinase inhibitor. […] For most assays, kinase-tagged T7 phage strains were grown in parallel in 24-well blocks in an E. coli host derived from the BL21 strain. E. coli were grown to log-phase and infected with T7 phage from a frozen stock (multiplicity of infection=0.4) and incubated with shaking at 32° C. until lysis (90-150 minutes). The lysates were centrifuged (6,000×g) and filtered (0.2 μm) to remove cell debris. The remaining kinases were produced in HEK-293 cells and subsequently tagged with DNA for qPCR detection. Streptavidin-coated magnetic beads were treated with biotinylated small molecule ligands for 30 minutes at room temperature to generate affinity resins for kinase assays. The liganded beads were blocked with excess biotin and washed with blocking buffer (SeaBlock (Pierce), 1% BSA, 0.05% Tween 20, 1 mM DTT) to remove unbound ligand and to reduce non-specific phage binding. […] Test compounds were prepared as 40× stocks in 100% DMSO and directly diluted into the assay. All reactions were performed in polypropylene 384-well plates in a final volume of 0.02 ml. […] The beads were then re-suspended in elution buffer (1×PBS, 0.05% Tween 20, 0.5 μM non-biotinylated affinity ligand) and incubated at room temperature with shaking for 30 minutes. The kinase concentration in the eluates was measured by qPCR. Compounds that bind the kinase active site and directly (sterically) or indirectly (allosterically) prevent kinase binding to the immobilized ligand, will reduce the amount of kinase captured on the solid support. […] The strength of binding of the test molecule to the kinase can be expressed as the percent control (% Ctrl) The compound(s) were screened at 3000 nM concentration, and results for primary screen binding interactions are reported as ‘% Ctrl’, where lower numbers indicate stronger hits in the matrix on the following page(s). [formula] • negative control=DMSO (100% Ctrl) • positive control=control compound (0% Ctrl)

In experiment [2] the target is T2, panel of ninety-seven kinases (Homo sapiens, UniProt P04629).
T2 construct: purchased DiscoverX; host or cells: T7 phage in E. coli (BL21-derived) for most kinases; HEK-293 for the rest
The conditions noted are these: NTRK1; read-out: % Ctrl @ 3 μM. How it is done:
as §1

Experiment [3] deals with T3, panel of ninety-seven kinases (Homo sapiens, UniProt P07333).
T3 construct: purchased DiscoverX; host or cells: T7 phage in E. coli (BL21-derived) for most kinases; HEK-293 for the rest
As to conditions: CSF1R; read-out: % Ctrl @ 3 μM. As to the method:
as §1

Experiment [4] addresses T4, panel of ninety-seven kinases (Homo sapiens, UniProt P12931).
T4 construct: purchased DiscoverX; host or cells: T7 phage in E. coli (BL21-derived) for most kinases; HEK-293 for the rest
As to conditions: SRC; read-out: % Ctrl @ 3 μM. How it is done: as §1

For experiment [5], the target named is T5, panel of ninety-seven kinases (Homo sapiens, UniProt P17612).
T5 construct: purchased DiscoverX; host or cells: T7 phage in E. coli (BL21-derived) for most kinases; HEK-293 for the rest
The conditions noted are these: PRKACA; read-out: % Ctrl @ 3 μM. How it is done: as §1

For experiment [6], the target named is T6, panel of ninety-seven kinases (Homo sapiens, UniProt P21802).
T6 construct: purchased DiscoverX; host or cells: T7 phage in E. coli (BL21-derived) for most kinases; HEK-293 for the rest
The conditions noted are these: FGFR2; read-out: % Ctrl @ 3 μM. How it is done: as §1

The target in experiment [7] is T7, panel of ninety-seven kinases (Homo sapiens, UniProt P30530).
T7 construct: purchased DiscoverX; host or cells: T7 phage in E. coli (BL21-derived) for most kinases; HEK-293 for the rest
The conditions noted are these: AXL; read-out: % Ctrl @ 3 μM. As to the method: as §1

Experiment [8] concerns the target T8, panel of ninety-seven kinases (Homo sapiens, UniProt P31749).
T8 construct: purchased DiscoverX; host or cells: T7 phage in E. coli (BL21-derived) for most kinases; HEK-293 for the rest
The conditions noted are these: AKT1; read-out: % Ctrl @ 3 μM. How it is done:
as §1

Experiment [9] addresses T9, panel of ninety-seven kinases (Homo sapiens, UniProt P31751).
T9 construct: purchased DiscoverX; host or cells: T7 phage in E. coli (BL21-derived) for most kinases; HEK-293 for the rest
As to conditions: AKT2; read-out: % Ctrl @ 3 μM. How it is done:
as §1

Experiment [10] addresses T10, panel of ninety-seven kinases (Homo sapiens, UniProt P35968).
T10 construct: purchased DiscoverX; host or cells: T7 phage in E. coli (BL21-derived) for most kinases; HEK-293 for the rest
The conditions noted are these: KDR; read-out: % Ctrl @ 3 μM. As to the method: as §1

The target of experiment [11] is T11, panel of ninety-seven kinases (Homo sapiens, UniProt P36888).
T11 construct: purchased DiscoverX; host or cells: T7 phage in E. coli (BL21-derived) for most kinases; HEK-293 for the rest
The conditions noted are these: FLT3; read-out: % Ctrl @ 3 μM. As to the method: as §1

In experiment [12] the target is T12, panel of ninety-seven kinases (Homo sapiens, UniProt P36896).
T12 construct: purchased DiscoverX; host or cells: T7 phage in E. coli (BL21-derived) for most kinases; HEK-293 for the rest
As to conditions: ACVR1B; read-out: % Ctrl @ 3 μM. As to the method: as §1

In experiment [13] the target is T13, panel of ninety-seven kinases (Homo sapiens, UniProt P42336).
T13 construct: purchased DiscoverX; host or cells: T7 phage in E. coli (BL21-derived) for most kinases; HEK-293 for the rest
As to conditions: PIK3CA; read-out: % Ctrl @ 3 μM. As to the method:
as §1

Experiment [14] has as its target T14, panel of ninety-seven kinases (Homo sapiens, UniProt P43403).
T14 construct: purchased DiscoverX; host or cells: T7 phage in E. coli (BL21-derived) for most kinases; HEK-293 for the rest
As to conditions: ZAP70; read-out: % Ctrl @ 3 μM. As to the method: as §1

For experiment [15], the target named is T15, panel of ninety-seven kinases (Homo sapiens, UniProt P49841).
T15 construct: purchased DiscoverX; host or cells: T7 phage in E. coli (BL21-derived) for most kinases; HEK-293 for the rest
The conditions noted are these: GSK3B; read-out: % Ctrl @ 3 μM. As to the method: as §1

The target of experiment [16] is T16, panel of ninety-seven kinases (Homo sapiens, UniProt P52333).
T16 construct: purchased DiscoverX; host or cells: T7 phage in E. coli (BL21-derived) for most kinases; HEK-293 for the rest
The conditions noted are these: JAK3; read-out: % Ctrl @ 3 μM. How it is done: as §1

For experiment [17], the target named is T17, panel of ninety-seven kinases (Homo sapiens, UniProt Q15303).
T17 construct: purchased DiscoverX; host or cells: T7 phage in E. coli (BL21-derived) for most kinases; HEK-293 for the rest
The conditions noted are these: ERBB4; read-out: % Ctrl @ 3 μM. As to the method:
as §1

For experiment [18], the target named is T18, panel of ninety-seven kinases (Homo sapiens, UniProt Q16539).
T18 construct: purchased DiscoverX; host or cells: T7 phage in E. coli (BL21-derived) for most kinases; HEK-293 for the rest
As to conditions: MAPK14; read-out: % Ctrl @ 3 μM. As to the method:
as §1

Experiment [19] concerns the target T19, panel of ninety-seven kinases (Homo sapiens, UniProt Q9BWU1).
T19 construct: purchased DiscoverX; host or cells: T7 phage in E. coli (BL21-derived) for most kinases; HEK-293 for the rest
As to conditions: CDK19; read-out: % Ctrl @ 3 μM. How it is done: as §1

The target in experiment [20] is T20, panel of ninety-seven kinases (Homo sapiens, UniProt Q9P1W9).
T20 construct: purchased DiscoverX; host or cells: T7 phage in E. coli (BL21-derived) for most kinases; HEK-293 for the rest
As to conditions: PIM2; read-out: % Ctrl @ 3 μM. As to the method:
as §1

Experiment [21] addresses T21, panel of ninety-seven kinases (Homo sapiens, UniProt Q9Y463).
T21 construct: purchased DiscoverX; host or cells: T7 phage in E. coli (BL21-derived) for most kinases; HEK-293 for the rest
The conditions noted are these: DYRK1B; read-out: % Ctrl @ 3 μM. How it is done:
as §1

Structures are written as SMILES.

T6 sequence (P21802 22-821): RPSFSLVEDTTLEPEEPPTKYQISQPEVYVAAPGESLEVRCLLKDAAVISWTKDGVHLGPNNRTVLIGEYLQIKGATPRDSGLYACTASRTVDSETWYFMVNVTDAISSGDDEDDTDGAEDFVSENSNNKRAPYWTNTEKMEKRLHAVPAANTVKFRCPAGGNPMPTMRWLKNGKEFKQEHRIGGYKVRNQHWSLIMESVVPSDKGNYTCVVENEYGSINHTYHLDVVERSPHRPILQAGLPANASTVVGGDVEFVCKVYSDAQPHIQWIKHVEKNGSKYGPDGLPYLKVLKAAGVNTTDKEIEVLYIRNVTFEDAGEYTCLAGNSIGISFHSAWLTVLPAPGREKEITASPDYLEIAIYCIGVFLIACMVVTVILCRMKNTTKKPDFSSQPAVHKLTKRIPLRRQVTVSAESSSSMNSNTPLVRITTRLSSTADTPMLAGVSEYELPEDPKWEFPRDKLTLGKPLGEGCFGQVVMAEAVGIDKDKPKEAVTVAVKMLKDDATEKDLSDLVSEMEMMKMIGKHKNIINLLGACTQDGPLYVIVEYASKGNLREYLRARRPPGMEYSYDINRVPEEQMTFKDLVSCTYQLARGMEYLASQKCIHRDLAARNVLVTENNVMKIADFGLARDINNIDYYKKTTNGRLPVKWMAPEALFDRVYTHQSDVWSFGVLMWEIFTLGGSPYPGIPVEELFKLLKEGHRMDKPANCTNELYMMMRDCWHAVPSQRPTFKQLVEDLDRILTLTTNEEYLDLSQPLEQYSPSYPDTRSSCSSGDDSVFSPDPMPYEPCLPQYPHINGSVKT
T7 sequence (P30530 26-894): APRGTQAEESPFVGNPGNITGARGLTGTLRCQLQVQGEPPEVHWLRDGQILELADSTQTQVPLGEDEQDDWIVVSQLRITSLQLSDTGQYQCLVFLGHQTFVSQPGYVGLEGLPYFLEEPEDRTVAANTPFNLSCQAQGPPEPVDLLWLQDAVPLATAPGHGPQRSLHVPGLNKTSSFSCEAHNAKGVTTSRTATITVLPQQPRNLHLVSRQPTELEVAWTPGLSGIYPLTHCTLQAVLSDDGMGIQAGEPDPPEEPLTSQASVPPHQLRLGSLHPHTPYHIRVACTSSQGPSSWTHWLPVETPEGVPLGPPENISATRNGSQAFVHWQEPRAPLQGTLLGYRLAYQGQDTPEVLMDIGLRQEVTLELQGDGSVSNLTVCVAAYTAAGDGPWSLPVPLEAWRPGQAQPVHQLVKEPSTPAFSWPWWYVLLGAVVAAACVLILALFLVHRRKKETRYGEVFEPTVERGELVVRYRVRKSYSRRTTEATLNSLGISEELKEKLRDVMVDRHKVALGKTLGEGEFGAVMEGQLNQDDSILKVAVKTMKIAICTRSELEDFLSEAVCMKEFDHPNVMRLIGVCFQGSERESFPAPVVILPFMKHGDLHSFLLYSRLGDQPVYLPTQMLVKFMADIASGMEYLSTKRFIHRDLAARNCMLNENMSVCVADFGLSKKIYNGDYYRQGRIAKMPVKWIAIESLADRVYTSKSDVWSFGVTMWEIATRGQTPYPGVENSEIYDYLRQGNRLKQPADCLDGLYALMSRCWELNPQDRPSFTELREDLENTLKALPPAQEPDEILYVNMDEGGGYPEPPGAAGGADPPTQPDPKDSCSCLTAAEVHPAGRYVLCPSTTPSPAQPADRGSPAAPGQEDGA
T17 sequence (Q15303 26-1308): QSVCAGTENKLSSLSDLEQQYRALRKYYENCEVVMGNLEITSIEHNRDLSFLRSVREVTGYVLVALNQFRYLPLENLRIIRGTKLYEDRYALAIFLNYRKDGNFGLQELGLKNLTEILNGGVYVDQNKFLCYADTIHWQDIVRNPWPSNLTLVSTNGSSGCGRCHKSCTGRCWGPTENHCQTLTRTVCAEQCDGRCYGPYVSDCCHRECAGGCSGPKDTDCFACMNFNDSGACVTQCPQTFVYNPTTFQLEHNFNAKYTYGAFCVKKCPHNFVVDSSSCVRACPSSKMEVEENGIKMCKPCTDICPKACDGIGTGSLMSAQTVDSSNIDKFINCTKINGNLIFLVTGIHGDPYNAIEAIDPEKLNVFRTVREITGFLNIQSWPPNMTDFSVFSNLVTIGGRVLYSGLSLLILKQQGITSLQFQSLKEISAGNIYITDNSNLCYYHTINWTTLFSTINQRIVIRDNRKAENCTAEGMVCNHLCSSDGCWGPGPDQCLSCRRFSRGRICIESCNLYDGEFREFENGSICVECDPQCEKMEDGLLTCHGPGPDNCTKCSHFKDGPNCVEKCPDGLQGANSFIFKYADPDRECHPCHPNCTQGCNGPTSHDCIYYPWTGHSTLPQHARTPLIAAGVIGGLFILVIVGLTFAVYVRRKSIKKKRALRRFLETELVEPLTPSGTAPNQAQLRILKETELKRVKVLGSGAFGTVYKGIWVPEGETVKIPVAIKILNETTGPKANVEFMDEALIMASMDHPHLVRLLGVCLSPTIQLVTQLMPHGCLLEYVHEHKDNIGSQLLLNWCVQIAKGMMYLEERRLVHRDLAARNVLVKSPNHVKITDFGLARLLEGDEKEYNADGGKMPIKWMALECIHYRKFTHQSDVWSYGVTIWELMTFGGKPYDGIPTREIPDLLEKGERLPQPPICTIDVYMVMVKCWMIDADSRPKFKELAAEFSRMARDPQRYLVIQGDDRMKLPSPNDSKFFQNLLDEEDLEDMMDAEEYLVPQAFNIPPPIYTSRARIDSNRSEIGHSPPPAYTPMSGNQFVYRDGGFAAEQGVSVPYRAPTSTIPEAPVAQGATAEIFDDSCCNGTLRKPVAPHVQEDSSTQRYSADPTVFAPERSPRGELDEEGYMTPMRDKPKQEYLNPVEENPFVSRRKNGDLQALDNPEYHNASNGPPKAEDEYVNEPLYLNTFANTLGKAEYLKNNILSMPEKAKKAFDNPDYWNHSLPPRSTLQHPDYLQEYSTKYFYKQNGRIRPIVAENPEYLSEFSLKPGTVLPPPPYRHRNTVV
T18 sequence (Q16539 whole entry): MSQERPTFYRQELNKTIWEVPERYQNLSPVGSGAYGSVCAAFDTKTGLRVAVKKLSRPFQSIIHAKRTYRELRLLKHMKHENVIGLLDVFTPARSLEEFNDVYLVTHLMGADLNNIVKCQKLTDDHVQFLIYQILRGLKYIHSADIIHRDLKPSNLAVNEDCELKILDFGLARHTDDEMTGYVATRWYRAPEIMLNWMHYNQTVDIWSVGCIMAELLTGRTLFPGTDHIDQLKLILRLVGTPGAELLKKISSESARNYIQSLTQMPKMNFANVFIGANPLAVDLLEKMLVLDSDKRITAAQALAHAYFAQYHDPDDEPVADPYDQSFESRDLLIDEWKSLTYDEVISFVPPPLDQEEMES
T10 sequence (P35968 20-1356): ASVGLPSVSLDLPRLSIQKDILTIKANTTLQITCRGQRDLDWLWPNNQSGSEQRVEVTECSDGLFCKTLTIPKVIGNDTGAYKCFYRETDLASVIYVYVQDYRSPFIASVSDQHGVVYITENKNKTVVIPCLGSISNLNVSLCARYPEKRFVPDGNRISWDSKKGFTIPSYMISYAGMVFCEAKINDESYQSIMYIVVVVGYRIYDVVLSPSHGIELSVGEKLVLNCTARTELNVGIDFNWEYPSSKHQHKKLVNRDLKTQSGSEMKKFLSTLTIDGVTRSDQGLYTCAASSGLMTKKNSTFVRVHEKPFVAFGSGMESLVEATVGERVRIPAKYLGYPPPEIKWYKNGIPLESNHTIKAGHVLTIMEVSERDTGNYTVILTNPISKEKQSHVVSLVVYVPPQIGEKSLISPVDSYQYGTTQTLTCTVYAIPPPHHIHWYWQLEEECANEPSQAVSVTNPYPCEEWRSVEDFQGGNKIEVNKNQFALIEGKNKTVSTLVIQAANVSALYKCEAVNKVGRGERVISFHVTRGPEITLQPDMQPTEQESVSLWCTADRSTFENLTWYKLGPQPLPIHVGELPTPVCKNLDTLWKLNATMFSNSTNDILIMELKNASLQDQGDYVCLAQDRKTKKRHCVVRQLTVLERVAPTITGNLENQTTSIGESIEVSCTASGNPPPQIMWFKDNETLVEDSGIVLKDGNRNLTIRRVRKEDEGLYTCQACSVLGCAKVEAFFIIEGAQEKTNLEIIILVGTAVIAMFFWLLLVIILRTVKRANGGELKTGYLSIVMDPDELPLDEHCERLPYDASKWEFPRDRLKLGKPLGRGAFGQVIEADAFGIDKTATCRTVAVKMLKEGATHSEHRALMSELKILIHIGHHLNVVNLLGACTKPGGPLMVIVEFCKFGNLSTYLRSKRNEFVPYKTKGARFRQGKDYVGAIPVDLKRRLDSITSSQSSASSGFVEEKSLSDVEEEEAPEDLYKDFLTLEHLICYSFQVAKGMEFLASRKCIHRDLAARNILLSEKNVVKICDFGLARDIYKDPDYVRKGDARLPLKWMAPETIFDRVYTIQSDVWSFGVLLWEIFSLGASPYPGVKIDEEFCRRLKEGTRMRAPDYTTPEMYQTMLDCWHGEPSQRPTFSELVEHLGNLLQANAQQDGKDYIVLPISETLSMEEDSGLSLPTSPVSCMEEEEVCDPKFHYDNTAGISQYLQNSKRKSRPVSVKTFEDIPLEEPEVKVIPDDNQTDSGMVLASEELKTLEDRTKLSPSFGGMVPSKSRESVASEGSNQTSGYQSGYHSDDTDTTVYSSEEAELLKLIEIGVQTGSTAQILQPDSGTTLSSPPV
T20 sequence (Q9P1W9 whole entry): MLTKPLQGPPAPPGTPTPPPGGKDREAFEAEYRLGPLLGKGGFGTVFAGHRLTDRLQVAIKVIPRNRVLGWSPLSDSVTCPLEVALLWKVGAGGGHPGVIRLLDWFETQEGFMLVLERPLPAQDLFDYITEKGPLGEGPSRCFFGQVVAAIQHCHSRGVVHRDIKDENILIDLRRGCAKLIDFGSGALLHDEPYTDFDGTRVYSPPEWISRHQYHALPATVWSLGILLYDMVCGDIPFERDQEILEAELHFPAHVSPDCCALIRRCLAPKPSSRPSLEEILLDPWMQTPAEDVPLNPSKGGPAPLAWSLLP

Regarding `CN(C)CCNC(=O)c1ccc(-c2ccc(-c3ccc(Cl)cc3)n2-c2ccccc2C(F)(F)F)cc1` (single isomer, unassigned) [Atropisomer A-2, 4-[5-(4-chlorophenyl)-1-[2-(trifluoromethyl)phenyl]pyrrol-2-yl]-N-[2-(dimethylamino)ethyl]benzamide], the percent of control kinase binding to immobilized ligand at 3 µM in experiment [1] stood at 88%; in [2], 100%; in experiment [3] it was 100%; in experiment [4] it was 100%; in experiment [5], 100%; in [6] it was 85%. Further, the percent of control kinase binding to immobilized ligand at 3 µM in experiment [7] amounted to 93%; in experiment [8] it was 98%; in [9] it was 100%; in [10], 100%; in experiment [11], 100%; in [12], 96%. In addition, the percent of control kinase binding to immobilized ligand at 3 µM was determined as 100% in experiment [13]; 92% in [14]; 88% in experiment [15]; 100% in experiment [16]; 99% in experiment [17]; 100% in experiment [18]. Further, the percent of control kinase binding to immobilized ligand at 3 µM in experiment [19] was 81%; in experiment [20], 100%; in [21], 97%.

The values above are taken from patent US20220348565A1, “PHARMACEUTICAL COMPOUNDS” (SENTINEL ONCOLOGY LIMITED, priority 2019, published 2022).
